Measurements: ChEMBL document CHEMBL5724914, “Linking interpersonal differences in gut microbiota composition and drug biotransformation activity” (2024)
Where a SMILES comes first, the peptide text is derived from it. [ ]: non-standard residue; d: D form. pGlu = O=C1CC[C@@H](C(=O)O)N1; Thz = O=C(O)[C@@H]1CSCN1

Key:
[1] = (§1) The drug is tested on Z-028 corresponding to mouse gut metagenome with ENA study accession number: PRJEB37062 and ENA sample accession number: ERS12561827 for biotransformation under anaerobic condition. The drug concentrations were measured over 9 timepoints collected between 0 and 24 hours of incubation by liquid-chromatography-coupled mass spectrometry (LC–MS); settings: 2 µM
[2] = as §1, with “Z-025” for “Z-028”, “rabbit” for “mouse”, “ERS12561824” for “ERS12561827”; settings: 2 µM
[3] = as §1, with “Z-021” for “Z-028”, “to” for “to mouse gut”, “ERS12561820” for “ERS12561827”; settings: 2 µM
[4] = as §1, with “Z-013” for “Z-028”, “rabbit” for “mouse”, “ERS12561813” for “ERS12561827”; settings: 2 µM
[5] = as §1, with “Z-006” for “Z-028”, “ERS12561806” for “ERS12561827”; settings: 2 µM
[6] = as §1, with “Z-003” for “Z-028”, “pig” for “mouse”, “ERS12561803” for “ERS12561827”; settings: 2 µM
[7] = as §1, with “WLS-098” for “Z-028”, “human” for “mouse”, “ERS12561754” for “ERS12561827”; settings: 2 µM
[8] = as §1, with “WLS-069” for “Z-028”, “human” for “mouse”, “ERS12561748” for “ERS12561827”; settings: 2 µM
[9] = as §1, with “WLS-010” for “Z-028”, “human” for “mouse”, “ERS12561743” for “ERS12561827”; settings: 2 µM
[10] = as §1, with “WLS-006” for “Z-028”, “human” for “mouse”, “ERS12561741” for “ERS12561827”; settings: 2 µM
[11] = human gut metagenome, 24 h, 2 µM
[12] = human gut metagenome, 24 h, 2 µM; remark: listed apart in the source
[13] = human gut metagenome, 24 h, 2 µM; remark: listed apart in the source
[14] = human gut metagenome, 24 h, 2 µM; remark: listed apart in the source
[15] = human gut metagenome, 24 h, 2 µM; remark: listed apart in the source
[16] = human gut metagenome, 24 h, 2 µM; remark: listed apart in the source
[17] = human gut metagenome, 24 h, 2 µM; remark: listed apart in the source
[18] = human gut metagenome, 24 h, 2 µM; remark: listed apart in the source
[19] = human gut metagenome, 24 h, 2 µM; remark: listed apart in the source
[20] = as §1, with “Z-020” for “Z-028”, “rabbit” for “mouse”, “ERS12561819” for “ERS12561827”; settings: 2 µM
Further: call rule not given here.

O=C(NCc1ccccc1)OCCO [BURAMATE]
Bacterial Biotransformation [1]: Compound NOT metabolized
Bacterial Biotransformation [2]: Compound NOT metabolized
Bacterial Biotransformation [3]: Compound NOT metabolized
Bacterial Biotransformation [4]: Compound NOT metabolized
Bacterial Biotransformation [5]: Compound NOT metabolized
Bacterial Biotransformation [6]: Compound NOT metabolized
Bacterial Biotransformation [7]: Compound NOT metabolized
Bacterial Biotransformation [8]: Compound NOT metabolized
Bacterial Biotransformation [9]: Compound NOT metabolized
Bacterial Biotransformation [10]: Compound NOT metabolized
Bacterial Biotransformation [11]: Compound NOT metabolized
Bacterial Biotransformation [12]: Compound NOT metabolized
Bacterial Biotransformation [13]: Compound NOT metabolized
Bacterial Biotransformation [14]: Compound NOT metabolized
Bacterial Biotransformation [15]: Compound NOT metabolized
Bacterial Biotransformation [16]: Compound NOT metabolized
Bacterial Biotransformation [17]: Compound NOT metabolized
Bacterial Biotransformation [18]: Compound NOT metabolized
Bacterial Biotransformation [19]: Compound NOT metabolized

CCCCCCOC(=O)/N=C(/N)c1ccc(NCc2nc3cc(C(=O)N(CCC(=O)OCC)c4ccccn4)ccc3n2C)cc1.CS(=O)(=O)O [DABIGATRAN ETEXILATE MESYLATE]
Bacterial Biotransformation [1]: Compound NOT metabolized
Bacterial Biotransformation [2]: Compound NOT metabolized
Bacterial Biotransformation [3]: Compound NOT metabolized
Bacterial Biotransformation [20]: Compound NOT metabolized
Bacterial Biotransformation [4]: Compound NOT metabolized
Bacterial Biotransformation [5]: Compound NOT metabolized
Bacterial Biotransformation [6]: Compound NOT metabolized
Bacterial Biotransformation [11]: Compound NOT metabolized
Bacterial Biotransformation [12]: Compound NOT metabolized
Bacterial Biotransformation [13]: Compound NOT metabolized
Bacterial Biotransformation [14]: Compound NOT metabolized
Bacterial Biotransformation [15]: Compound NOT metabolized
Bacterial Biotransformation [16]: Compound NOT metabolized
Bacterial Biotransformation [17]: Compound NOT metabolized
Bacterial Biotransformation [19]: Compound NOT metabolized

O=c1[nH]c2ccccc2n1CCCN1CCC(n2c(=O)[nH]c3cc(Cl)ccc32)CC1 [DOMPERIDONE]
Bacterial Biotransformation [1]: Compound NOT metabolized
Bacterial Biotransformation [2]: Compound NOT metabolized
Bacterial Biotransformation [3]: Compound NOT metabolized
Bacterial Biotransformation [20]: Compound NOT metabolized
Bacterial Biotransformation [4]: Compound NOT metabolized
Bacterial Biotransformation [5]: Compound NOT metabolized
Bacterial Biotransformation [6]: Compound NOT metabolized
Bacterial Biotransformation [7]: Compound NOT metabolized
Bacterial Biotransformation [8]: Compound NOT metabolized
Bacterial Biotransformation [10]: Compound NOT metabolized
Bacterial Biotransformation [15]: Compound NOT metabolized
Bacterial Biotransformation [17]: Compound NOT metabolized
Bacterial Biotransformation [18]: Compound NOT metabolized
Bacterial Biotransformation [19]: Compound NOT metabolized

c1ccc([C@H]2CN3CCSC3=N2)cc1 [LEVAMISOLE]
Bacterial Biotransformation [1]: Compound metabolized
Bacterial Biotransformation [2]: Compound NOT metabolized
Bacterial Biotransformation [20]: Compound NOT metabolized
Bacterial Biotransformation [4]: Compound NOT metabolized
Bacterial Biotransformation [5]: Compound metabolized
Bacterial Biotransformation [8]: Compound metabolized
Bacterial Biotransformation [10]: Compound metabolized
Bacterial Biotransformation [11]: Compound metabolized
Bacterial Biotransformation [12]: Compound metabolized
Bacterial Biotransformation [13]: Compound NOT metabolized
Bacterial Biotransformation [14]: Compound metabolized
Bacterial Biotransformation [15]: Compound metabolized
Bacterial Biotransformation [16]: Compound metabolized
Bacterial Biotransformation [17]: Compound metabolized
Bacterial Biotransformation [19]: Compound metabolized

C#C[C@]1(O)CC[C@H]2[C@@H]3CCC4=CC(=O)CC[C@@H]4[C@H]3CC[C@@]21CC [LEVONORGESTREL]
Bacterial Biotransformation [1]: Compound metabolized
Bacterial Biotransformation [2]: Compound metabolized
Bacterial Biotransformation [20]: Compound metabolized
Bacterial Biotransformation [4]: Compound metabolized
Bacterial Biotransformation [5]: Compound metabolized
Bacterial Biotransformation [7]: Compound metabolized
Bacterial Biotransformation [8]: Compound metabolized
Bacterial Biotransformation [10]: Compound metabolized
Bacterial Biotransformation [11]: Compound NOT metabolized
Bacterial Biotransformation [12]: Compound metabolized
Bacterial Biotransformation [13]: Compound metabolized
Bacterial Biotransformation [14]: Compound metabolized
Bacterial Biotransformation [15]: Compound metabolized
Bacterial Biotransformation [16]: Compound metabolized
Bacterial Biotransformation [18]: Compound metabolized

COc1c(C)c2c(c(O)c1C/C=C(\C)CCC(=O)OCCN1CCOCC1)C(=O)OC2 [MYCOPHENOLATE MOFETIL]
Bacterial Biotransformation [1]: Compound metabolized
Bacterial Biotransformation [2]: Compound metabolized
Bacterial Biotransformation [3]: Compound metabolized
Bacterial Biotransformation [4]: Compound metabolized
Bacterial Biotransformation [5]: Compound metabolized
Bacterial Biotransformation [6]: Compound metabolized
Bacterial Biotransformation [7]: Compound metabolized
Bacterial Biotransformation [8]: Compound metabolized
Bacterial Biotransformation [9]: Compound metabolized
Bacterial Biotransformation [10]: Compound metabolized
Bacterial Biotransformation [11]: Compound metabolized
Bacterial Biotransformation [12]: Compound metabolized
Bacterial Biotransformation [13]: Compound metabolized
Bacterial Biotransformation [14]: Compound metabolized
Bacterial Biotransformation [15]: Compound metabolized
Bacterial Biotransformation [16]: Compound metabolized
Bacterial Biotransformation [17]: Compound metabolized
Bacterial Biotransformation [18]: Compound metabolized
Bacterial Biotransformation [19]: Compound metabolized

C=CCN1CC[C@]23c4c5ccc(O)c4O[C@H]2C(=O)CC[C@@]3(O)[C@H]1C5 [NALOXONE]
Bacterial Biotransformation [1]: Compound NOT metabolized
Bacterial Biotransformation [2]: Compound NOT metabolized
Bacterial Biotransformation [3]: Compound NOT metabolized
Bacterial Biotransformation [20]: Compound NOT metabolized
Bacterial Biotransformation [4]: Compound NOT metabolized
Bacterial Biotransformation [5]: Compound NOT metabolized
Bacterial Biotransformation [6]: Compound metabolized
Bacterial Biotransformation [7]: Compound NOT metabolized
Bacterial Biotransformation [8]: Compound NOT metabolized
Bacterial Biotransformation [11]: Compound NOT metabolized
Bacterial Biotransformation [12]: Compound NOT metabolized
Bacterial Biotransformation [13]: Compound NOT metabolized
Bacterial Biotransformation [14]: Compound NOT metabolized
Bacterial Biotransformation [15]: Compound NOT metabolized
Bacterial Biotransformation [16]: Compound NOT metabolized
Bacterial Biotransformation [17]: Compound metabolized
Bacterial Biotransformation [18]: Compound NOT metabolized
Bacterial Biotransformation [19]: Compound NOT metabolized

CCCc1nc(C(C)(C)O)c(C(=O)OCc2oc(=O)oc2C)n1Cc1ccc(-c2ccccc2-c2nnn[nH]2)cc1 [OLMESARTAN MEDOXOMIL]
Bacterial Biotransformation [1]: Compound NOT metabolized
Bacterial Biotransformation [2]: Compound metabolized
Bacterial Biotransformation [3]: Compound metabolized
Bacterial Biotransformation [20]: Compound metabolized
Bacterial Biotransformation [4]: Compound metabolized
Bacterial Biotransformation [5]: Compound metabolized
Bacterial Biotransformation [6]: Compound metabolized
Bacterial Biotransformation [7]: Compound NOT metabolized
Bacterial Biotransformation [8]: Compound metabolized
Bacterial Biotransformation [10]: Compound metabolized
Bacterial Biotransformation [11]: Compound metabolized
Bacterial Biotransformation [12]: Compound NOT metabolized
Bacterial Biotransformation [13]: Compound metabolized
Bacterial Biotransformation [14]: Compound metabolized
Bacterial Biotransformation [15]: Compound metabolized
Bacterial Biotransformation [16]: Compound metabolized
Bacterial Biotransformation [17]: Compound NOT metabolized
Bacterial Biotransformation [18]: Compound metabolized
Bacterial Biotransformation [19]: Compound metabolized

NC(=O)N1c2ccccc2CC(=O)c2ccccc21 [OXCARBAZEPINE]
Bacterial Biotransformation [1]: Compound NOT metabolized
Bacterial Biotransformation [2]: Compound NOT metabolized
Bacterial Biotransformation [3]: Compound NOT metabolized
Bacterial Biotransformation [20]: Compound NOT metabolized
Bacterial Biotransformation [4]: Compound NOT metabolized
Bacterial Biotransformation [5]: Compound NOT metabolized
Bacterial Biotransformation [6]: Compound metabolized
Bacterial Biotransformation [7]: Compound NOT metabolized
Bacterial Biotransformation [8]: Compound NOT metabolized
Bacterial Biotransformation [11]: Compound metabolized
Bacterial Biotransformation [12]: Compound NOT metabolized
Bacterial Biotransformation [13]: Compound NOT metabolized
Bacterial Biotransformation [14]: Compound NOT metabolized
Bacterial Biotransformation [15]: Compound metabolized
Bacterial Biotransformation [16]: Compound NOT metabolized
Bacterial Biotransformation [17]: Compound metabolized
Bacterial Biotransformation [18]: Compound NOT metabolized
Bacterial Biotransformation [19]: Compound NOT metabolized

O=C1CC[C@@H](C(=O)N2CSC[C@H]2C(=O)O)N1 [PIDOTIMOD] ([pGlu]-[Thz]-OH)
Bacterial Biotransformation [1]: Compound NOT metabolized
Bacterial Biotransformation [2]: Compound NOT metabolized
Bacterial Biotransformation [20]: Compound NOT metabolized
Bacterial Biotransformation [4]: Compound NOT metabolized
Bacterial Biotransformation [5]: Compound NOT metabolized
Bacterial Biotransformation [6]: Compound NOT metabolized
Bacterial Biotransformation [7]: Compound NOT metabolized
Bacterial Biotransformation [9]: Compound NOT metabolized
Bacterial Biotransformation [11]: Compound NOT metabolized
Bacterial Biotransformation [13]: Compound metabolized
Bacterial Biotransformation [14]: Compound NOT metabolized
Bacterial Biotransformation [15]: Compound NOT metabolized
Bacterial Biotransformation [16]: Compound NOT metabolized
Bacterial Biotransformation [17]: Compound NOT metabolized
Bacterial Biotransformation [19]: Compound NOT metabolized
